Data: patent US10836728B2, “Substituted 3-dialkylaminomethyl-piperidin-4-yl-benzamides and methods of making and using same” (MEBIAS DISCOVERY, INC., priority 2017, dated 2020)
Read-outs that look alike come from different tables or passages of the source.

How the values were obtained:
[1] = target: T1, human OPRM1 (μ, MOR) (Homo sapiens (Human), UniProt P35372); experiment: cell-based; format: cell-based; conditions: for Emax: OPRM1, read-out: β-Arrestin Emax; for EC50: PathHunter human OPRM1 Arrestin CHO-K1 cell line, read-out: β-Arrestin EC50
Protocol: The technology is based on Enzyme Fragment Complementation (EFC) with β-galactosidase (β-Gal) as the reporter. […] EA is fused to β-arrestin-2, and ED is fused to the C-terminus of the GPCR of interest. When a ligand binds and the GPCR is activated, β-arrestin-2 is recruited to the receptor resulting in an ED/EA complementation, restoring β-Gal activity, which is measured using chemiluminescence. For this assay, the PathHunter human OPRM1 (μ, MOR) Arrestin CHO-K1 cell line was used.

[2] = target: T1, human OPRM1 (μ, MOR); experiment: cell-based; format: cell-based; conditions: for Emax: OPRM1, read-out: cAMP Emax; for EC50: PathHunter human OPRM1 Arrestin CHO-K1 cell line, read-out: cAMP EC50
Protocol: G-protein signaling was measured via second messenger cAMP modulation. Detection of cAMP modulation was accomplished in the PathHunter human OPRM1 (μ, MOR) Arrestin CHO-K1 cell line using the Dynamic2 cAMP Kit from Cisbio.

[3] = target: T2, MOR (Homo sapiens (Human), UniProt P35372); format: cell-based; conditions: for ΔRA of compound: β-arrestin vs cAMP, from EC50 and Emax
Protocol: In certain embodiments, the ability of a compound to activate G-protein or β-arrestin is not an on/off switch for a given pathway, but rather a continuous function. To capture this, each compound is measured for activity in cell assays that are linked to β-arrestin recruitment and G-protein signaling. By comparing the activity between these two measures (accounting for both EC50 and maximal response reached, Emax) a relative activity (RA) value is determined.
In the case of MOR it is desirable to have high activation of the G-protein pathway while reducing activation of β-arrestin.

[4] = test system: tail flick response; experiment: Rat tail flick nociceptive pain model; format: in vivo; conditions: SC
Protocol: In rodents, the tail flick response to radiant heat is commonly used as a model to detect potentially useful analgesic agents.
Procedurally, the time (seconds) required to elicit a tail flick response induced by focused radiant heat is measured as the pain threshold in groups of 8 Sprague-Dawley (SD) male rats weighing 110±20 g. Prolongation by 50 percent or more (≥50) of the time required to elicit a tail flick response 15 and 30 minutes following administration of test substance indicates possible analgesic activity. Also, one-way ANOVA followed by Dunnett's test is applied for comparison between vehicle control and treatment groups.

[5] = test system: intestinal transit; experiment: Gastrointestinal motility (charcoal transit); conditions: rat, SC
Protocol: At 30 minutes post subcutaneous dosing, the animals were given a suspension of 5% charcoal in 10% gum arabic solution (2 ml/animal p.o.) and sacrificed 15 minutes later. The intestine was removed, and the length of the gut in cm (GL) as well as extent of charcoal movement from the pylorus to the beginning of the charcoal column in cm (CP) was measured.
Intestinal transit (IT) was calculated as IT=(CP/GL)×100%. A 30% or more (30) increase or decrease intestinal transit (IT), relative to the vehicle control group, was considered significant. The values in animals treated with test compounds compared with vehicle control group were also analyzed by using one-way ANOVA followed by Dunnett's test. Differences are considered statistically significant at P<0.05.

[6] = test system: place preference; experiment: Conditioned place preference; conditions: rat, SC
From the text: Although a number of different designs and apparatuses are used in this model, the basic characteristics of this task involve the association of a particular environment with drug treatment, followed by the association of a different environment with the absence of the drug (i.e., the drug's vehicle). A common variation of this design consists of a three-compartment chamber with the outer compartments being designed to have different characteristics (e.g., white vs. black walls, pine vs. corn bedding, horizontal grid vs. cross-grid flooring). […] On the following day, the rat is injected with the drug's vehicle and then placed in the opposite compartment. […] Afterward, a test session is conducted, which consists of placing the animal in the center compartment and then, after opening the gates to both of the outer compartments, recording the time the animal spends in each of the outer compartments during the session.
In certain embodiments, there are three days of adaptation where any preferences are assessed. Then, compartment assignments for drug or saline are based on any existing preferences. […] There are 8 days of training followed by the test day when both compartments are accessible and the computer counts how much time is spent in the respective compartment.

[7] = test system: sedation; experiment: Accelerating RotaRod (sedation); conditions: rat, SC
[8] = Respiratory depression test (O2 partial pressure); conditions: rat, SC, at 30 minutes, vehicle 96 mm Hg
[9] = patients following bunionectomy; cited from earlier work
[10] = healthy volunteers; cited from earlier work
[11] = target: T2, MOR; conditions: cell-based assays; cited from earlier work
[12] = target: T2, MOR; conditions: vs morphine; cited from earlier work

| SMILES | Emax [1] [%] | Emax [2] [%] | EC50 [2] [nM] | EC50 [1] [nM] | Bias Factor (ΔRA of compound relative to ΔRA of DAMGO) × 10 [3] | ΔRA of compound [3] | also measured |
| --- | --- | --- | --- | --- | --- | --- | --- |
| C[C@@H](NC(=O)[C@@H](N)Cc1ccc(O)cc1)C(=O)NCC(=O)N(C)[C@@H](Cc1ccccc1)C(=O)NCCO [DAMGO, H-Tyr-D-Ala-Gly-NMe-Phe-Gly-OH, reference compound] | 98 |  |  |  |  |  |  |
| CN(C)CC1CN(CCc2ccccc2)CCC1(O)c1cccc(C(N)=O)c1 (centres unmarked) [(9), 3-(3-Dimethylaminomethyl-4-hydroxy-1-phenethyl-piperidin-4-yl)-benzamide] | 18 | 118 | 34 | 830 | −6.76 | −2.22 |  |
| CN(C)C[C@H]1CN(CCCc2ccc(F)cc2Cl)CC[C@]1(O)c1cccc(C(N)=O)c1 [(23a), 3-((3S,4R)-1-(3-(2-Chloro-4-fluorophenyl)propyl)-3-((dimethylamino)methyl)-4-hydroxypiperidin-4-yl)benzamide] |  |  |  |  |  |  | Dose to reach the ED80 of morphine in rat tail flick [4]: 4.5 mg/kg; Reduction in transit relative to vehicle ([5]; 4.5 mg/kg): no significant reduction in transit; Reduction in transit relative to vehicle ([5]; 18 mg/kg): small reduction in transit; Preference for drug chamber over saline chamber ([6]; 18 mg/kg): no preference for the (23a) chamber over the saline chamber; Sedation, accelerating RotaRod ([7]; 4.5 mg/kg): no sedation; Sedation, accelerating RotaRod ([7]; 18 mg/kg): no sedation; O2 partial pressure ([8]; 4.5 mg/kg): the same O2 partial pressure as vehicle; O2 partial pressure ([8]; 18 mg/kg): the same O2 partial pressure as vehicle |
| CN(C)C[C@@H]1CN(Cc2ccc(F)cc2Cl)CC[C@@]1(O)c1cccc(C(N)=O)c1 (single isomer, unassigned; ent-b) [Ent-B-syn-(6), Ent-B-syn 3-(1-(2-chloro-4-fluorobenzyl)-3-((dimethylamino)methyl)-4-hydroxypiperidin-4-yl)benzamide] |  |  | 463 | 3670 | −1.06 | −1.65 | cAMP Emax [2]: 111%; β-Arrestin Emax [1]: 20% |
| CN(C)CC1CN(CCCc2ccccc2)CCC1(O)c1cccc(C(N)=O)c1 (centres unmarked) [(20), 3-[3-Dimethylaminomethyl-4-hydroxy-1-(3-phenyl-propyl)-piperidin-4-yl]-benzamide] | 14 | 103 | 10 | 270 | −7.37 | −2.28 |  |
| CN(C)C[C@H]1CN(CCc2ccsc2)CC[C@]1(O)c1cccc(C(N)=O)c1 [(41a), 3-((3S,4R)-3-((Dimethylamino)methyl)-4-hydroxy-1-(2-(thiophen-3-yl)ethyl)piperidin-4-yl)benzamide] |  |  |  |  |  |  | Dose to reach the ED80 of morphine in rat tail flick [4]: 5 mg/kg; Reduction in transit relative to vehicle ([5]; 5 mg/kg): no significant reduction in transit; Reduction in transit relative to vehicle ([5]; 20 mg/kg): no significant reduction in transit; Preference for drug chamber over saline chamber ([6]; 20 mg/kg): no preference for the (41a) chamber over the saline chamber; Sedation, accelerating RotaRod ([7]; 5 mg/kg): no sedation; Sedation, accelerating RotaRod ([7]; 20 mg/kg): no sedation; O2 partial pressure ([8]; 5 mg/kg): the same O2 partial pressure as vehicle; O2 partial pressure ([8]; 20 mg/kg): the same O2 partial pressure as vehicle |
| CN(C)CC1CN(Cc2ccc(F)cc2Cl)CCC1(O)c1cccc(C(N)=O)c1 (centres unmarked) [(6), 3-[1-(2-Chloro-4-fluoro-benzyl)-3-dimethylaminomethyl-4-hydroxy-piperidin-4-yl]-benzamide] | 40 | 107 | 102 | 2560 | −2.89 | −1.83 |  |
| CN(C)C[C@H]1CN(Cc2ccc(F)cc2Cl)CC[C@]1(O)c1cccc(C(N)=O)c1 (single isomer, unassigned; ent-a) [Ent-A-syn-(6)] |  |  | 163 | 3170 | −0.92 | −1.63 | cAMP Emax [2]: 132%; β-Arrestin Emax [1]: 60% |
| CN(C)CC1CN(CCc2ccc(O)cc2)CCC1(O)c1cccc(C(N)=O)c1 (centres unmarked) [(18), 3-(3-((Dimethylamino)methyl)-4-hydroxy-1-(4-hydroxyphenethyl)piperidin-4-yl)benzamide] | 24 | 103 | 160 | 3100 | −3.73 | −1.91 |  |
| COc1ccc(CCN2CCC(O)(c3cccc(C(N)=O)c3)C(CN(C)C)C2)cc1 (centres unmarked) [(17), 3-(3-((Dimethylamino)methyl)-4-hydroxy-1-(4-methoxyphenethyl)piperidin-4-yl)benzamide] | < 10 | 84 | 467 | > 100000 |  |  |  |
| COc1ccsc1CNCC[C@@]1(c2ccccn2)CCOC2(CCCC2)C1 [oliceridine, N-[(3-methoxythiophen-2-yl)methyl]-2-[(9R)-9-pyridin-2-yl-6-oxaspiro[4.5]decan-9-yl]ethanamine] |  |  |  |  |  |  | Level of analgesia [9]: higher level of analgesia; On-target adverse effects (such as nausea, and decrease in respiratory drive) [10]: decreased on-target adverse effects; β-arrestin recruitment Emax [11]: 14%; G-protein signaling Emax [12]: 83% |
| CN(C)CC1CN(Cc2ccsc2)CCC1(O)c1cccc(C(N)=O)c1 (centres unmarked) [(11), 3-(3-Dimethylaminomethyl-4-hydroxy-1-thiophen-3-ylmethyl-piperidin-4-yl)-benzamide] | 37 | 112 | 550 | 10700 | −2.31 | −1.77 |  |
| CN(C)CC1CN(CCc2ccsc2)CCC1(O)c1cccc(C(N)=O)c1 (centres unmarked) [(15), 3-(3-((Dimethylamino)methyl)-4-hydroxy-1-(2-(thiophen-3-yl)ethyl)piperidin-4-yl)benzamide] | < 10 | 95 | 67 | > 100000 |  |  |  |
